Our source for the inhibition and pest or weed control values is patent US6410558B1, “Fungicides for the control of take-all disease of plants” (Monsanto Technology LLC, priority 1991, dated 2002).

A value given as a limit tells only on which side of the number the result lay.

The subject of one test is Gaeumannomyces graminis var. tritici (Ggt). Nature of the test: In vitro Assay: mycelial growth of Ggt on minimal media agar plates containing test compound. It is filed as cell-based. To be noted: Gaeumannomyces graminis; 0.1 ppm in minimal media agar; dark, 19-20° C., 4 to 5 days; diameter of mycelial growth; read-out: In vitro (ppm) 0.1, Percent Inhibition. In a few lines:
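Compounds added from acetone stock into minimal (Czapek Dox) agar; plates inoculated with three 4-mm Ggt plugs, incubated in dark at 19-20° C for 4 to 5 days. Colony diameter measured; Percent Inhibition = [1-((treated mm −4)/(control mm −4))]×100.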
For the molecule `C[Si](C)(C)c1cccc(Cl)c1C(=O)NCc1ccco1` [Example 32, 2-Chloro-N-(2-furylmethyl)-6-(trimethylsilyl)benzamide], the inhibition – broadly, how much of the control response was suppressed – at 0.1 ppm is 75%.
For the molecule `Cc1ccccc1NC(=O)c1c(Cl)cccc1[Si](C)(C)C` [Example 33, 2-Chloro-N-(2-methylphenyl)-6-(trimethylsilyl)benzamide], the inhibition at 0.1 ppm is < 0%.
Consider `C[Si](C)(C)c1cccc(Cl)c1C(=O)NC1CC1` [Example 34, 2-Chloro-N-cyclopropyl-6-(trimethylsilyl)benzamide], for which the inhibition at 0.1 ppm was determined as 97%.
Consider `CCN(Cc1ccccc1)C(=O)c1c(Cl)cccc1[Si](C)(C)C` [Example 35, 2-Chloro-N-ethyl-N-(phenylmethyl)-6-(trimethylsilyl)benzamide], for which the inhibition at 0.1 ppm stood at 3%.
As to `CCCN(CCC)C(=O)c1c(Cl)cccc1[Si](C)(C)C` [Example 36, 2-Chloro-N,N-dipropyl-6-(trimethylsilyl)benzamide], the inhibition at 0.1 ppm turned out to be 26%.
The same measure, in the same setting: the same measure for `CCN(CC)C(=O)c1c(Br)ccc(F)c1[Si](C)(C)C` [Example 37, 6-Bromo-N,N-diethyl-3-fluoro-2-(trimethylsilyl)benzamide]: 17%; for `CCN(CC)C(=O)c1c(Cl)ccc(F)c1[Si](C)(C)C` [Example 38, 6-Chloro-N,N-diethyl-3-fluoro-2-(trimethylsilyl)benzamide]: 53%.
Still for that read-out and setting: the same measure for `CCN(CC)C(=O)c1c(Cl)cccc1[Si](C)(C)C` [Example 39, 2-Chloro-N,N-diethyl-6-(trimethylsilyl)benzamide]: 49%; for `CCNC(=O)c1c(Cl)cccc1[Si](C)(C)C` [Example 45, 2-Chloro-N-ethyl-6-(trimethylsilyl)benzamide]: 100%.
Take `CCNC(=O)c1c(C)cccc1[Si](C)(C)C` [Example 48, N-Ethyl-2-methyl-6-(trimethylsilyl)benzamide]: the inhibition at 0.1 ppm was found to be 74%.
Still for that read-out and setting: the figure for `CCNC(=O)c1ccccc1[Si](C)(C)C` [Example 49, N-Ethyl-2-(trimethylsilyl)benzamide] is 100%; for `CCN(CC)C(=S)c1c(C)cccc1[Si](C)(C)C` [Example 51, N,N-Diethyl-2-methyl-6-(trimethylsilyl)thiobenzamide] it is < 0%.

The same test, now with this note: Gaeumannomyces graminis; 1 ppm in minimal media agar; dark, 19-20° C., 4 to 5 days; diameter of mycelial growth; read-out: In vitro (ppm) 1, Percent Inhibition.
With `C[Si](C)(C)c1cccc(Cl)c1C(=O)NCc1ccco1` [Example 32, 2-Chloro-N-(2-furylmethyl)-6-(trimethylsilyl)benzamide], the inhibition at 1 ppm was 100%.
Regarding `Cc1ccccc1NC(=O)c1c(Cl)cccc1[Si](C)(C)C` [Example 33, 2-Chloro-N-(2-methylphenyl)-6-(trimethylsilyl)benzamide], the inhibition at 1 ppm was 44%.
On the same count and under the same terms, the same measure for `C[Si](C)(C)c1cccc(Cl)c1C(=O)NC1CC1` [Example 34, 2-Chloro-N-cyclopropyl-6-(trimethylsilyl)benzamide]: 100%; for `CCN(Cc1ccccc1)C(=O)c1c(Cl)cccc1[Si](C)(C)C` [Example 35, 2-Chloro-N-ethyl-N-(phenylmethyl)-6-(trimethylsilyl)benzamide]: 7%; for `CCCN(CCC)C(=O)c1c(Cl)cccc1[Si](C)(C)C` [Example 36, 2-Chloro-N,N-dipropyl-6-(trimethylsilyl)benzamide]: 69%.
For the molecule `CCN(CC)C(=O)c1c(Br)ccc(F)c1[Si](C)(C)C` [Example 37, 6-Bromo-N,N-diethyl-3-fluoro-2-(trimethylsilyl)benzamide], the inhibition at 1 ppm is 63%.
For the molecule `CCN(CC)C(=O)c1c(Cl)ccc(F)c1[Si](C)(C)C` [Example 38, 6-Chloro-N,N-diethyl-3-fluoro-2-(trimethylsilyl)benzamide], the inhibition at 1 ppm was 79%.
On the same count and under the same terms, the figure for `CCN(CC)C(=O)c1c(Cl)cccc1[Si](C)(C)C` [Example 39, 2-Chloro-N,N-diethyl-6-(trimethylsilyl)benzamide] is 82%.
Turning to `CCNC(=O)c1c(Cl)cccc1[Si](C)(C)C` [Example 45, 2-Chloro-N-ethyl-6-(trimethylsilyl)benzamide], the inhibition at 1 ppm came out at 100%.
The same measure, in the same setting: the same measure for `CCNC(=O)c1c(C)cccc1[Si](C)(C)C` [Example 48, N-Ethyl-2-methyl-6-(trimethylsilyl)benzamide]: 100%; for `CCNC(=O)c1ccccc1[Si](C)(C)C` [Example 49, N-Ethyl-2-(trimethylsilyl)benzamide]: 100%.
The same measure, in the same setting: the figure for `CCN(CC)C(=S)c1c(C)cccc1[Si](C)(C)C` [Example 51, N,N-Diethyl-2-methyl-6-(trimethylsilyl)thiobenzamide] is 19%.

Staying with this test, now noted: Gaeumannomyces graminis; 10 ppm in minimal media agar; dark, 19-20° C., 4 to 5 days; diameter of mycelial growth; read-out: In vitro (ppm) 10, Percent Inhibition.
Turning to `C[Si](C)(C)c1cccc(Cl)c1C(=O)NCc1ccco1` [Example 32, 2-Chloro-N-(2-furylmethyl)-6-(trimethylsilyl)benzamide], the inhibition at 10 ppm amounted to 100%.
Still for that read-out and setting: the figure for `Cc1ccccc1NC(=O)c1c(Cl)cccc1[Si](C)(C)C` [Example 33, 2-Chloro-N-(2-methylphenyl)-6-(trimethylsilyl)benzamide] is 100%; for `C[Si](C)(C)c1cccc(Cl)c1C(=O)NC1CC1` [Example 34, 2-Chloro-N-cyclopropyl-6-(trimethylsilyl)benzamide] it is 100%.
The same measure, in the same setting: the figure for `CCN(Cc1ccccc1)C(=O)c1c(Cl)cccc1[Si](C)(C)C` [Example 35, 2-Chloro-N-ethyl-N-(phenylmethyl)-6-(trimethylsilyl)benzamide] is 93%.
Same read-out and setting: the same measure for `CCCN(CCC)C(=O)c1c(Cl)cccc1[Si](C)(C)C` [Example 36, 2-Chloro-N,N-dipropyl-6-(trimethylsilyl)benzamide]: 100%; for `CCN(CC)C(=O)c1c(Br)ccc(F)c1[Si](C)(C)C` [Example 37, 6-Bromo-N,N-diethyl-3-fluoro-2-(trimethylsilyl)benzamide]: 87%; for `CCN(CC)C(=O)c1c(Cl)ccc(F)c1[Si](C)(C)C` [Example 38, 6-Chloro-N,N-diethyl-3-fluoro-2-(trimethylsilyl)benzamide]: 100%.
In the case of `CCN(CC)C(=O)c1c(Cl)cccc1[Si](C)(C)C` [Example 39, 2-Chloro-N,N-diethyl-6-(trimethylsilyl)benzamide], the inhibition at 10 ppm stood at 92%.
The same measure, in the same setting: the figure for `CCNC(=O)c1c(Cl)cccc1[Si](C)(C)C` [Example 45, 2-Chloro-N-ethyl-6-(trimethylsilyl)benzamide] is 100%; for `CCNC(=O)c1c(C)cccc1[Si](C)(C)C` [Example 48, N-Ethyl-2-methyl-6-(trimethylsilyl)benzamide] it is 100%.
On the same count and under the same terms, the figure for `CCNC(=O)c1ccccc1[Si](C)(C)C` [Example 49, N-Ethyl-2-(trimethylsilyl)benzamide] is 100%.
For the molecule `CCN(CC)C(=S)c1c(C)cccc1[Si](C)(C)C` [Example 51, N,N-Diethyl-2-methyl-6-(trimethylsilyl)thiobenzamide], the inhibition at 10 ppm worked out at 100%.

Another test has as its system Ggt. Kind of test: In vivo Assay: control of Ggt on wheat grown in pots of Ggt-infested soil, root disease rating. Conditions: Gaeumannomyces graminis, 672 h; 0.5 mg active ingredient per pot; 'Bergen' or 'Anza' wheat in Ggt-infested soil; after four weeks; vs untreated control; read-out: In vivo, percent disease control. Details: species or system Gaeumannomyces graminis var. tritici. On the procedure: Compounds are tested for control of Ggt on ‘Bergen’ or ‘Anza’ varieties of wheat grown in 3-inch square pots containing soil infested with Ggt. The infestation is accomplished by mixing the soil with an inoculum prepared by growing Ggt on ¼ strength potato dextrose agar (4.875 g potato dextrose agar, 5.0 g Bacto agar, 500 mL distilled, deionized water) in plates and using plugs from the plates to infest sterile oats (400 cc whole oats, 350 mL deionized water, autoclaved). After a one-month incubation period at room temperature, the oats are dried and mixed with the soil at 4% v/v. Four wheat seeds are placed on top of the soil in each pot. The test compounds are prepared as an 1:9 acetone/water v/v solution containing 0.18% Tween® 20 to provide a treatment rate of 0.5 mg active ingredient per pot, treated with 3 mL test solution per pot. Five pots are used for each treatment level and the controls, which are untreated, inoculated and non-inoculated pots. After one hour drying time, the seeds are covered with more of the appropriate soil and a layer of vermiculite. The pots are placed in a growth chamber and watered each day. After four weeks, each pot is evaluated for evidence of disease by examination of the seminal roots of each plant under a dissecting microscope. A 0 to 5 rating scale having the following meanings is used:
0=no runner hyphae or lesions present
1=runner hyphae and a few small lesions present on <10% of root system
2=runner hyphae and small lesions present on 10-25% of root system
3=runner hyphae and lesions present on 25-50% of root system
4=runner hyphae and many, large, coalescing lesions on >50% of root system
5=root system and culm completely inundated with lesions and runner hyphae
From each set of five replicates a high and low score is eliminated and a replicate mean is calculated by the average of the remaining three scores. This mean score is then compared to the untreated control score and a percent disease control is calculated.
As to `C[Si](C)(C)c1cccc(Cl)c1C(=O)NCc1ccco1` [Example 32, 2-Chloro-N-(2-furylmethyl)-6-(trimethylsilyl)benzamide], the pest or weed control at 0.5 mg/pot was 85%.
On the same count and under the same terms, the same measure for `Cc1ccccc1NC(=O)c1c(Cl)cccc1[Si](C)(C)C` [Example 33, 2-Chloro-N-(2-methylphenyl)-6-(trimethylsilyl)benzamide]: 12%.
For the molecule `C[Si](C)(C)c1cccc(Cl)c1C(=O)NC1CC1` [Example 34, 2-Chloro-N-cyclopropyl-6-(trimethylsilyl)benzamide], the pest or weed control at 0.5 mg/pot was determined as 100%.
On the same count and under the same terms, the same measure for `CCN(Cc1ccccc1)C(=O)c1c(Cl)cccc1[Si](C)(C)C` [Example 35, 2-Chloro-N-ethyl-N-(phenylmethyl)-6-(trimethylsilyl)benzamide]: 46%.
Same read-out and setting: the same measure for `CCCN(CCC)C(=O)c1c(Cl)cccc1[Si](C)(C)C` [Example 36, 2-Chloro-N,N-dipropyl-6-(trimethylsilyl)benzamide]: 88%; for `CCN(CC)C(=O)c1c(Br)ccc(F)c1[Si](C)(C)C` [Example 37, 6-Bromo-N,N-diethyl-3-fluoro-2-(trimethylsilyl)benzamide]: 83%; for `CCN(CC)C(=O)c1c(Cl)ccc(F)c1[Si](C)(C)C` [Example 38, 6-Chloro-N,N-diethyl-3-fluoro-2-(trimethylsilyl)benzamide]: 95%.
As for `CCN(CC)C(=O)c1c(Cl)cccc1[Si](C)(C)C` [Example 39, 2-Chloro-N,N-diethyl-6-(trimethylsilyl)benzamide], the pest or weed control at 0.5 mg/pot is 99%.
As for `CCNC(=O)c1c(Cl)cccc1[Si](C)(C)C` [Example 45, 2-Chloro-N-ethyl-6-(trimethylsilyl)benzamide], the pest or weed control at 0.5 mg/pot amounted to 97%.
Same read-out and setting: the figure for `CCNC(=O)c1c(C)cccc1[Si](C)(C)C` [Example 48, N-Ethyl-2-methyl-6-(trimethylsilyl)benzamide] is 97%.
The same measure, in the same setting: the same measure for `CCNC(=O)c1ccccc1[Si](C)(C)C` [Example 49, N-Ethyl-2-(trimethylsilyl)benzamide]: 97%; for `CCN(CC)C(=S)c1c(C)cccc1[Si](C)(C)C` [Example 51, N,N-Diethyl-2-methyl-6-(trimethylsilyl)thiobenzamide]: 77%.
